Like-named read-outs stand apart in the source and are kept apart here.
Tests used:
[1] = target: various enzymes (Homo sapiens, UniProt P00533, L861Q)
Method: (§1) Ambit profiling from Eurofins (formerly Discoverx) was conducted in accordance with the manufacturer's instructions.

[2] = target: various enzymes (Homo sapiens, UniProt O60331); conditions: PIP5K1C; 1 uM
Method: as §1

[3] = target: various enzymes (Homo sapiens, UniProt P00533, L858R/T790M)
Method: as §1

[4] = target: various enzymes (Homo sapiens, UniProt P00533, G719C)
Method: as §1

[5] = target: various enzymes (Homo sapiens, UniProt P45983); conditions: JNK1; 1 uM
Method: as §1

[6] = target: various enzymes (Homo sapiens, UniProt Q06187); conditions: BTK; 1 uM
Method: as §1

[7] = target: various enzymes (Homo sapiens, UniProt O60674); conditions: JAK2(JH1domain-catalytic); 1 uM
Method: as §1

[8] = target: T1, various enzymes (Homo sapiens, UniProt O75385); conditions: ULK1; 1 uM
T1 sequence (O75385 1-1050): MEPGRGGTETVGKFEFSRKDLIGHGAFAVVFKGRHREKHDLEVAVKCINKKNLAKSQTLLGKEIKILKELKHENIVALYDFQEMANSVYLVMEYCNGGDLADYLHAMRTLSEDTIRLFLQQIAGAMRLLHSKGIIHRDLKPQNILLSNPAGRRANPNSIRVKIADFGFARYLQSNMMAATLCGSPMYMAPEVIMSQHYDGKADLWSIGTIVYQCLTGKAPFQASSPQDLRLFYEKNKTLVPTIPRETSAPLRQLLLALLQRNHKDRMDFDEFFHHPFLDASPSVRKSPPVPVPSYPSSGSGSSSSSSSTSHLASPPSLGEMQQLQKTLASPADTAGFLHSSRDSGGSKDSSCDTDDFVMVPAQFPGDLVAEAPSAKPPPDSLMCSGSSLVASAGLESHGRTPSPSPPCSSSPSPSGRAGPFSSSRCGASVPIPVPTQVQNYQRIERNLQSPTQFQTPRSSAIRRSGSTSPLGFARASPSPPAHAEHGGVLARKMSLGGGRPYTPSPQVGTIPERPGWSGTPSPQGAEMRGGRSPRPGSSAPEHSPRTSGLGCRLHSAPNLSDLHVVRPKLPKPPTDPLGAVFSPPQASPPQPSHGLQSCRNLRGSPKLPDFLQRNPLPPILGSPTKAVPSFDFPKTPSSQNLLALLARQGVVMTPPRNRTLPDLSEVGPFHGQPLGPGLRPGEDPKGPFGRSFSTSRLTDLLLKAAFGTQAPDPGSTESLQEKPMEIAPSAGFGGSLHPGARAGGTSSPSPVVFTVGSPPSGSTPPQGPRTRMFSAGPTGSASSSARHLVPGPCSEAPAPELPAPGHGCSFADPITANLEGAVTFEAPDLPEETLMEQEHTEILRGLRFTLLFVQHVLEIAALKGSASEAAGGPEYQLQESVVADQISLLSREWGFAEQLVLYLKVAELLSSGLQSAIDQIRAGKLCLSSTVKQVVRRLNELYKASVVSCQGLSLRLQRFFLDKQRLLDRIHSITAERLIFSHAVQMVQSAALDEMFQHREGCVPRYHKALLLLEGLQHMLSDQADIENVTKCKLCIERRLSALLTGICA
Method: as §1

[9] = target: T2, various enzymes (Homo sapiens, UniProt O14757); conditions: CHEK1; 1 uM
T2 sequence (O14757 1-476): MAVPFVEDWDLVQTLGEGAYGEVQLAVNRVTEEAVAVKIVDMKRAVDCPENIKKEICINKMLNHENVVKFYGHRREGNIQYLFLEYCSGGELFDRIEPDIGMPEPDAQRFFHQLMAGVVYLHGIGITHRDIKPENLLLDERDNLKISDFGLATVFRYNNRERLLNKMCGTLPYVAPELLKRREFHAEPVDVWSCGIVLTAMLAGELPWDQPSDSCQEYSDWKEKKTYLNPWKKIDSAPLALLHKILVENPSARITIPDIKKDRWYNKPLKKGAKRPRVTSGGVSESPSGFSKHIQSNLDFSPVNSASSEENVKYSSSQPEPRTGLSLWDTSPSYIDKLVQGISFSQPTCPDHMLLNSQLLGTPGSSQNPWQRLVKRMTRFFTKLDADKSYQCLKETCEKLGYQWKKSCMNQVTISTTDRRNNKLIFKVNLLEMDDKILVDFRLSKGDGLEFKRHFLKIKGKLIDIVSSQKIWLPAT
Method: as §1

Sequence of various enzymes (Homo sapiens, UniProt O60674) (O60674 whole entry): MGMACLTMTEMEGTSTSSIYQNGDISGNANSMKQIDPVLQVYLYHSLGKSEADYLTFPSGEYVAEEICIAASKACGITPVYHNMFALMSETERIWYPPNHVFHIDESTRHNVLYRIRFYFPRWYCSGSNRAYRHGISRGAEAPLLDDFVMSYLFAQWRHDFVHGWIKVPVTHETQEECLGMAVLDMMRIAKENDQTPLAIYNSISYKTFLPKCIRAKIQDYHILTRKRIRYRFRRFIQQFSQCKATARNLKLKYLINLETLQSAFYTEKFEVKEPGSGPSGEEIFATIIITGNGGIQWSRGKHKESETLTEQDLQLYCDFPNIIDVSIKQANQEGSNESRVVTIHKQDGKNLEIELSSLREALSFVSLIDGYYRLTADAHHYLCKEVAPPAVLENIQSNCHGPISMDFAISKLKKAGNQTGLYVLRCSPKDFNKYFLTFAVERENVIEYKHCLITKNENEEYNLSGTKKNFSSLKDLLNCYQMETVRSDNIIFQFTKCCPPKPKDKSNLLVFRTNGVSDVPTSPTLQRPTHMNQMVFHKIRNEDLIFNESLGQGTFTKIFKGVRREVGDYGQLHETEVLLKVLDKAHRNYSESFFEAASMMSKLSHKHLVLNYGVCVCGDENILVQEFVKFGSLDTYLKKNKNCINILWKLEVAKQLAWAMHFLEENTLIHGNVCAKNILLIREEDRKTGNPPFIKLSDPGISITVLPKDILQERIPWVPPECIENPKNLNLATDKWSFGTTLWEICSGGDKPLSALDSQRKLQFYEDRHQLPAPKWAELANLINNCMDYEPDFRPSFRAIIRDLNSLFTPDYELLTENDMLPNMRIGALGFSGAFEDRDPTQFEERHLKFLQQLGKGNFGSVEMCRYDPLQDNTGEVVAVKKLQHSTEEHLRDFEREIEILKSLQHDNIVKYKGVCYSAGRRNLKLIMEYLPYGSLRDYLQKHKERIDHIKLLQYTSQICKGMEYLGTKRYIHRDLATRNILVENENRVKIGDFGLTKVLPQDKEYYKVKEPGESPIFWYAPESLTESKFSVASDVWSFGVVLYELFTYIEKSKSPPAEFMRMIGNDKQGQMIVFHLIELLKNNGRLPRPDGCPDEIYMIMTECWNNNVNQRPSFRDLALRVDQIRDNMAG
Sequence of various enzymes (Homo sapiens, UniProt O60331) (O60331 whole entry): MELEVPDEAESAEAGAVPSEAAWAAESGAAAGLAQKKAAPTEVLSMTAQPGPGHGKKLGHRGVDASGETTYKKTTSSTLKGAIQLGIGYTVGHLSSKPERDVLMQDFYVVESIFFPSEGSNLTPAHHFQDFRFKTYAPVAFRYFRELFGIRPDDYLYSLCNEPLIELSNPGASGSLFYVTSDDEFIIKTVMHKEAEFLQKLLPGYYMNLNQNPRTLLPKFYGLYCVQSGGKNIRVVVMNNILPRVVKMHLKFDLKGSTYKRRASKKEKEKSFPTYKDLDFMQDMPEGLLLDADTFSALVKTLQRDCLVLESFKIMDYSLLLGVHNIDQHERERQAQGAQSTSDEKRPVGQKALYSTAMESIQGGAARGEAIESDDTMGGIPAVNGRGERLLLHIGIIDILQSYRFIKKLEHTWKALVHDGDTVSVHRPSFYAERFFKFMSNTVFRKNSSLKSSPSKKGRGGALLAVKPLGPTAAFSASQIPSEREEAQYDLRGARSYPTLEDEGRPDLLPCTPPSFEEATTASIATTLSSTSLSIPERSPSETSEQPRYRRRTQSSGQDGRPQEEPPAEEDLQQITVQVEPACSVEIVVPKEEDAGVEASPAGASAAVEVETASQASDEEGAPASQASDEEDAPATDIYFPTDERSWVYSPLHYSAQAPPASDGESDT
Sequence of various enzymes (Homo sapiens, UniProt P45983) (P45983 whole entry): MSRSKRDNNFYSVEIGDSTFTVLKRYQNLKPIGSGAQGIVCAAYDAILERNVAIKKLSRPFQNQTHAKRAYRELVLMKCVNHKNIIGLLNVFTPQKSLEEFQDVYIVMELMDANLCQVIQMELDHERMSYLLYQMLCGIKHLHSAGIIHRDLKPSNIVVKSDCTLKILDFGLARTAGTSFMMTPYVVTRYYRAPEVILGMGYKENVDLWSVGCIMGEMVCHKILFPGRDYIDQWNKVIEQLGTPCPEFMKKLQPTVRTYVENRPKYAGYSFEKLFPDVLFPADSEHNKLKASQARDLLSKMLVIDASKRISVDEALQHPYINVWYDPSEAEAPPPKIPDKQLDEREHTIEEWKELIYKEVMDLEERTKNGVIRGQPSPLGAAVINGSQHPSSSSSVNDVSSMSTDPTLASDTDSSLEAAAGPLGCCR
Sequence of various enzymes (Homo sapiens, UniProt Q06187) (Q06187 whole entry): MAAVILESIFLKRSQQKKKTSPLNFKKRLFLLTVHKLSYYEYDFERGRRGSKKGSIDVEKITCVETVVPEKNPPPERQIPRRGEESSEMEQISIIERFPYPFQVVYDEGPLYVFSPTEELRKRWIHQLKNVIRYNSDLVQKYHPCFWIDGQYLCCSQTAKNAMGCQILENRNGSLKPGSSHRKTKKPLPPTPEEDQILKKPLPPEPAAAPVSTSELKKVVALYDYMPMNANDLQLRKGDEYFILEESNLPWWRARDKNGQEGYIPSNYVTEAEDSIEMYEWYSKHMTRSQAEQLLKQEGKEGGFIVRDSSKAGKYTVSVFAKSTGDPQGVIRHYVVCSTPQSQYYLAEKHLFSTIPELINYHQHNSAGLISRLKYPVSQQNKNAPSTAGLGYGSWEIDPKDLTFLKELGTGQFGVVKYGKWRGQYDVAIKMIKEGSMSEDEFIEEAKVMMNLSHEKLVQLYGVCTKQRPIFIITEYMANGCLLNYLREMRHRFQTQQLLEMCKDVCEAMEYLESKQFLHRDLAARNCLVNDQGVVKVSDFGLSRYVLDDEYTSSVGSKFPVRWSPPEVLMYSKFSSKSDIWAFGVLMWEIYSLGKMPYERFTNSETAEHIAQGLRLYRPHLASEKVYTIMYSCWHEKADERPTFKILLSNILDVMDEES

| Compound | Ambit profiling ([1]; EGFR(L861Q), 1 uM) | Ambit profiling [2] | Ambit profiling ([3]; EGFR(L858R, T790M), 1 uM) | Ambit profiling ([4]; EGFR(G719C), 1 uM) | Ambit profiling [5] | Ambit profiling [6] | Ambit profiling [7] | Ambit profiling [8] | Ambit profiling [9] | Ambit profiling [1] | Ambit profiling [3] | Ambit profiling [4] |
| --- | --- | --- | --- | --- | --- | --- | --- | --- | --- | --- | --- | --- |
| CN1Cc2nn(C)cc2-c2cnc3[nH]cc(c3c2)-c2cnn(c2)CCCC1=O [Compound 41, (Z)-31,5-dimethyl-11H,21H,31H-5-aza-2(3,5)-pyrrolo[2,3-b]pyridina-1(4,1),3(4,3)-dipyrazolacyclononaphan-6-one] | 100 | 20 | 14 | 100 | 0.1 | 61 | 0.5 | 22 | 100 | – | – | – |
| CN1Cc2nn(C)c(C#N)c2-c2cnc3[nH]cc(c3c2)-c2cn(nc2C(F)(F)F)CCCC1=O [Compound 48, (Z)-31,5-dimethyl-6-oxo-13-(trifluoromethyl)-11H,21H,31H-5-aza-2(3,5)-pyrrolo[2,3-b]pyridina-1(4,1),3(4,3)-dipyrazolacyclononaphane-35-carbonitrile] | – | 38 | – | – | 20 | 97 | 81 | 100 | 93 | 59 | 50 | 86 |

Reference: US12157741B2, “Macrocyclic inhibitors of DYRK1A” (DANA-FARBER CANCER INSTITUTE, INC., priority 2018, dated 2024)
